Measured values: US20220331303A1, “USE OF AN OREXIN 2 RECEPTOR AGONIST FOR THE TREATMENT OF EXCESSIVE SLEEPINESS” (Takeda Pharmaceutical Company Limited, priority 2019, published 2022)

Test system: sleep-deprived healthy volunteers
Experiment: Polysomnography (PSG) of recovery sleep after sleep deprivation in healthy volunteers
Assay type: in vivo, human
Experimental: Exploratory objectives in sleep-deprived healthy volunteers were as follows: • 1. To compare the effects of Compound A (LD and HD) and modafinil (300 mg) on promoting wakefulness as measured by MWT. • 2. To determine PK-PD relationships for selected PD measures. • 3. To evaluate PK-BP relationships in BP change after Compound A administration. • 4. To compare various polysomnography (PSG) parameters between Day −1 (predose) and Day 2 (recovery sleep). • 5. To determine whether there is any difference in the PSG parameters on Day 2 (recovery sleep) between Compound A and placebo or modafinil. • 6. To evaluate the continuous electroencephalogram (EEG) obtained during the MWTs for power spectra changes for Compound A (LD and HD) versus placebo, Compound A (LD and HD) versus modafinil, and modafinil versus placebo.
During the day before dosing on Day 1, participants were administered the KSS at scheduled timepoints. A practice MWT session was performed on Day 1 treatment period 1 (only once during the entire study) to familiarize subjects with the procedures. Study drug was administered in the clinic in the evening on Day 1 of each treatment period. Subjects underwent the MWT and KSS at specified timepoints after the start of the infusion. Subjects were required to stay awake between the MWT tests. Following completion of the IV infusion on Day 2, subjects underwent an additional MWT test. When the final MWT test and cognitive testing were completed, subjects were allowed to sleep (recovery sleep) for approximately 6 hours. PSG recording was collected during this time. Subjects were discharged from the unit after completion on Day 2 with continuing actigraphy upon discharge (to begin on Day −6 before the next treatment period). The interval between each subsequent treatment period was at least 7 days to ensure that the subject's circadian rhythm had returned to a normal cycle. Subject's vital signs, including BP, were monitored during the dosing and testing period. Blood samples for determination of Compound A plasma concentrations were collected at specified timepoints on Days 1 and 2 of each treatment period. Subjects completed the Columbia-Suicide Severity Rating Scale (C-SSRS) during screening, before study drug administration, and before discharge on Day 2 of each treatment period.
The PSGs assess recovery sleep during the day after the end of the sleep deprivation period. There were no corrections for multiple comparisons. […]

[1] = HD: Compound A 112 mg, recovery sleep
[2] = LD: Compound A 44 mg, recovery sleep

For `COC(=O)N1CCC[C@H](NS(C)(=O)=O)[C@@H]1CO[C@H]1CC[C@@H](c2ccccc2)CC1` [Compound A, methyl (2R,3S)-3-((methylsulfonyl)amino)-2-(((cis-4-phenylcyclohexyl)oxy)methyl)piperidine-1-carboxylate], the “PSG Stage N3 % LS Mean” value [1] was 29.36%, the “PSG Stage N3 % LS Mean Difference vs Placebo Estimate” value [1] was 3.53% and the “Stage N3 Duration LS Mean” value (LD: Compound A 44 mg) was 81.05 min. For the same compound, the “Stage N3 Duration LS Mean Difference vs placebo Estimate” value (LD: Compound A 44 mg) was -0.34 min, the “Stage REM % LS Mean” value (LD: Compound A 44 mg) was 20.70% and the “Stage REM % LS Mean Difference vs placebo Estimate” value (LD: Compound A 44 mg) was −0.68%. The “Stage REM Duration LS Mean” value (LD: Compound A 44 mg) was 60.76 min, the “Stage REM Duration LS Mean Difference vs placebo Estimate” value (LD: Compound A 44 mg) was -5.80 min and the “Stage Wake % LS Mean” value (LD: Compound A 44 mg) was 10.65%. For the same compound, the “Stage Wake % LS Mean Difference vs placebo Estimate” value (LD: Compound A 44 mg) was 0.35%, the “Stage Wake Duration LS Mean” value (LD: Compound A 44 mg) was 35.55 min and the “Stage Wake Duration LS Mean Difference vs placebo Estimate” value (LD: Compound A 44 mg) was 0.02 min. For the same compound, the “Total Arousal Index LS Mean” value (LD: Compound A 44 mg) was 10.07, the “Total Arousal Index LS Mean Difference vs placebo Estimate” value (LD: Compound A 44 mg) was 0.08 and the “Total Arousal LS Mean” value (LD: Compound A 44 mg) was 47.56. For the same compound, the “Total Arousal LS Mean Difference vs placebo Estimate” value (LD: Compound A 44 mg) was −2.85, the “Total Leg Movements LS Mean” value (LD: Compound A 44 mg) was 12.59 and the “Total Leg Movements LS Mean Difference vs placebo Estimate” value (LD: Compound A 44 mg) was −6.35. The “Total Leg Movements N1 LS Mean” value (LD: Compound A 44 mg) was 1.60, the “Total Leg Movements N1 LS Mean Difference vs placebo Estimate” value (LD: Compound A 44 mg) was 0.34 and the “Total Leg Movements N2 LS Mean” value (LD: Compound A 44 mg) was 6.04. For the same compound, the “Total Leg Movements N2 LS Mean Difference vs placebo Estimate” value (LD: Compound A 44 mg) was −2.51, the “Total Leg Movements N3 LS Mean” value (LD: Compound A 44 mg) was 0.65 and the “Total Leg Movements N3 LS Mean Difference vs placebo Estimate” value (LD: Compound A 44 mg) was −0.97. For the same compound, the “Total Leg Movements REM LS Mean” value (LD: Compound A 44 mg) was 3.44, the “Total Leg Movements REM LS Mean Difference vs placebo Estimate” value (LD: Compound A 44 mg) was −2.31 and the “Total Leg Movements with Awakening LS Mean” value (LD: Compound A 44 mg) was 0.68. The “Total Leg Movements with Awakening LS Mean Difference vs placebo Estimate” value (LD: Compound A 44 mg) was −1.07, the “Total Leg Movements with Microarous LS Mean” value (LD: Compound A 44 mg) was 2.35 and the “Total Leg Movements with Microarous LS Mean Difference vs placebo Estimate” value (LD: Compound A 44 mg) was 0.34. The “Total Leg Movements with Resp Event LS Mean” value (LD: Compound A 44 mg) was 0.16, the “Total Leg Movements with Resp Event LS Mean Difference vs placebo Estimate” value (LD: Compound A 44 mg) was 0.11 and the “Total Leg Movements without Arousal LS Mean” value (LD: Compound A 44 mg) was 10.21. The “Total Leg Movements without Arousal LS Mean Difference vs placebo Estimate” value (LD: Compound A 44 mg) was −6.71, the “Total Recording Time LS Mean” value (LD: Compound A 44 mg) was 342.50 min and the “Total Recording Time LS Mean Difference vs placebo Estimate” value (LD: Compound A 44 mg) was -14.40 min. For the same compound, the “Total Sleep Time LS Mean” value (LD: Compound A 44 mg) was 291.34 min, the “Total Sleep Time LS Mean Difference vs Placebo Estimate” value (LD: Compound A 44 mg) was -18.13 min and the “Wake After Persistent Sleep LS Mean” value (LD: Compound A 44 mg) was 33.78 min. For the same compound, the “Wake After Persistent Sleep LS Mean Difference vs placebo Estimate” value (LD: Compound A 44 mg) was -0.85 min, the “Wake After Sleep Onset LS Mean” value (LD: Compound A 44 mg) was 35.55 min and the “Wake After Sleep Onset LS Mean Difference vs placebo Estimate” value (LD: Compound A 44 mg) was 0.02 min. For the same compound, the “PSG Awakenings LS Mean” value [2] was 4.74, the “PSG Awakenings LS Mean Difference vs Placebo Estimate” value [2] was 0.25 and the “PSG N1 Latency LS Mean” value [2] was 3.60 min. For the same compound, the “PSG N1 Latency LS Mean Difference vs Placebo Estimate” value [2] was -1.76 min, the “PSG N2 Latency LS Mean” value [2] was 3.91 min and the “PSG N2 Latency LS Mean Difference vs Placebo Estimate” value [2] was -2.74 min. For the same compound, the “PSG N3 Latency LS Mean” value [2] was 21.94 min, the “PSG N3 Latency LS Mean Difference vs Placebo Estimate” value [2] was -5.33 min and the “PSG Per. Slp LS Mean” value [2] was 5.96 min. For the same compound, the “PSG Per. Slp LS Mean Difference vs Placebo Estimate” value [2] was -0.91 min, the “PSG REM Latency LS Mean” value [2] was 75.10 min and the “PSG REM Latency LS Mean Difference vs Placebo Estimate” value [2] was 20.16 min. The “PSG Sleep Efficiency LS Mean” value [2] was 84.95%, the “PSG Sleep Efficiency LS Mean Difference vs Placebo Estimate” value [2] was −1.77% and the “PSG Sleep Onset LS Mean” value [2] was 2.71 min. For the same compound, the “PSG Sleep Onset LS Mean Difference vs Placebo Estimate” value [2] was -1.28 min, the “PSG Spontaneous Arousal Index LS Mean” value [2] was 8.58 and the “PSG Spontaneous Arousal Index LS Mean Difference vs Placebo Estimate” value [2] was −0.36. The “PSG Spontaneous Arousal LS Mean” value [2] was 40.21, the “PSG Spontaneous Arousal LS Mean Difference vs Placebo Estimate” value [2] was −4.86 and the “PSG Stage N1 % LS Mean” value [2] was 5.69%. The “PSG Stage N1 % LS Mean Difference vs Placebo Estimate” value [2] was −0.39%, the “PSG Stage N1 Duration LS Mean” value [2] was 16.29 min and the “PSG Stage N1 Duration LS Mean Difference vs Placebo Estimate” value [2] was -2.12 min. For the same compound, the “PSG Stage N2 % LS Mean” value [2] was 46.04%, the “PSG Stage N2 % LS Mean Difference vs Placebo Estimate” value [2] was −0.66% and the “PSG Stage N2 Duration LS Mean” value [2] was 134.21 min. For the same compound, the “PSG Stage N2 Duration LS Mean Difference vs Placebo Estimate” value [2] was -9.86 min, the “PSG Stage N3 % LS Mean” value [2] was 27.65% and the “PSG Stage N3 % LS Mean Difference vs Placebo Estimate” value [2] was 1.82%. The “PSG sleep efficiency, arousals, and total sleep compared with placebo” value (both Compound A groups (44 and 112 mg), recovery sleep) was “not different from placebo”.
